Measurements from ChEMBL document CHEMBL1201862, “PubChem BioAssay data set” (2004).
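Interpolation was linear, between the two tested concentrations surrounding the appropriate level; five concentrations were tested over 48 hours in 96-well plates. At the GI50, growth is halved.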 Calls of active or inactive are those of the source. Cut-off read from the data, not from the text of the source: active = GI50 up to about 1.1 µM and inactive = higher. Where a SMILES comes first, the peptide text is derived from it. [ ]: non-standard residue; d: D form. The star is where a group is joined. Hyp = O=C(O)[CH]1C[CH](O)CN1; Cbz = O=C(OCc1ccccc1)*

Legend:
Assay in all cases: NCI tumour cell line growth inhibition, 48 h
A498 = tested on: A498
CAKI-1 = tested on: CAKI-1
HL-60 = tested on: HL-60
HOP-62 = tested on: HOP-62
K562 = tested on: K562
Malme-3M = tested on: Malme-3M
NCI-H226 = tested on: NCI-H226
NCI-H522 = tested on: NCI-H522
RPMI-8226 = tested on: RPMI-8226
RXF 393 = tested on: RXF 393
SF-268 = tested on: SF-268
SK-MEL-28 = tested on: SK-MEL-28
SK-MEL-2 = tested on: SK-MEL-2
SNB-19 = tested on: SNB-19
SNB-75 = tested on: SNB-75
SW-620 = tested on: SW-620
TK-10 = tested on: TK-10
UACC-257 = tested on: UACC-257
SK-OV-3 = tested on: SK-OV-3

Row | Structure (SMILES) | GI50 (A498) | GI50 (CAKI-1) | GI50 (HL-60) | GI50 (HOP-62) | GI50 (K562) | GI50 (Malme-3M) | GI50 (NCI-H226) | GI50 (NCI-H522) | GI50 (RPMI-8226) | GI50 (RXF 393) | GI50 (SF-268) | GI50 (SK-MEL-28) | GI50 (SK-MEL-2) | GI50 (SNB-19) | GI50 (SNB-75) | GI50 (SW-620) | GI50 (TK-10) | GI50 (UACC-257) | GI50 (SK-OV-3)
1 | COc1ccc(OC)c([N+](=O)[O-])c1-c1nc2sc(Cl)cn2c1/C=N/N=C(N)N | 14.1 µM (inactive) | 17.1 µM (inactive) | 11.2 µM (inactive) | 55.8 µM (inactive) | 7.53 µM (inactive) | 22.5 µM (inactive) | 18.2 µM (inactive) | 16.6 µM (inactive) | 26.9 µM (inactive) | 20.1 µM (inactive) | 20.8 µM (inactive) | 13.9 µM (inactive) | 18.6 µM (inactive) | 19.4 µM (inactive) | 10.1 µM (inactive) | 20.2 µM (inactive) | 25.2 µM (inactive) | 19.3 µM (inactive) | –
2 | NS(=O)(=O)c1nnc(NS(=O)(=O)c2ccc([N+](=O)[O-])cc2)s1 | > 100 µM (inactive) | > 100 µM (inactive) | > 100 µM (inactive) | > 100 µM (inactive) | 33.6 µM (inactive) | > 100 µM (inactive) | > 100 µM (inactive) | 29.6 µM (inactive) | 21.4 µM (inactive) | > 100 µM (inactive) | > 100 µM (inactive) | > 100 µM (inactive) | > 100 µM (inactive) | – | > 100 µM (inactive) | > 100 µM (inactive) | > 100 µM (inactive) | – | > 100 µM (inactive)
3 | CN(C1=NCCO1)c1cccc2c1CCCC2 | 3.71 µM (inactive) | 3.6 µM (inactive) | 4.41 µM (inactive) | 7.08 µM (inactive) | 4.78 µM (inactive) | 2.76 µM (inactive) | 1.44 µM (inactive) | 4.16 µM (inactive) | 5.93 µM (inactive) | 3.64 µM (inactive) | 5.33 µM (inactive) | 6.01 µM (inactive) | 4.09 µM (inactive) | 8.04 µM (inactive) | – | > 10 µM (inactive) | 3.23 µM (inactive) | 3.92 µM (inactive) | 4.71 µM (inactive)
4 | CCOC(=O)Cc1c(C)c2cc(C(=O)c3ccccc3)c(O)cc2oc1=O | 25.3 µM (inactive) | 30.6 µM (inactive) | 24.4 µM (inactive) | 35.6 µM (inactive) | 24.7 µM (inactive) | 25.4 µM (inactive) | 27.3 µM (inactive) | 27 µM (inactive) | 29.3 µM (inactive) | 41.1 µM (inactive) | 24.9 µM (inactive) | 34.2 µM (inactive) | 14.9 µM (inactive) | 33.7 µM (inactive) | 30.4 µM (inactive) | 45.1 µM (inactive) | 43.4 µM (inactive) | 28.7 µM (inactive) | –
5 | O=S(=O)(c1ccccc1)N1CCCC(c2ccccc2)CC1 (stereo not given) | 49 µM (inactive) | > 100 µM (inactive) | 9.75 µM (inactive) | – | 19.4 µM (inactive) | 30.8 µM (inactive) | 52.7 µM (inactive) | 35.4 µM (inactive) | 16.4 µM (inactive) | 41.5 µM (inactive) | 27.8 µM (inactive) | > 100 µM (inactive) | 45.9 µM (inactive) | 93.8 µM (inactive) | 30.8 µM (inactive) | 33 µM (inactive) | 51.9 µM (inactive) | 38.9 µM (inactive) | –
6 | O=C1NC(=S)NC(=O)C1C(c1ccc([N+](=O)[O-])cc1)C1C(=O)NC(=S)NC1=O.c1ccncc1 | > 100 µM (inactive) | > 100 µM (inactive) | > 100 µM (inactive) | > 100 µM (inactive) | > 100 µM (inactive) | – | > 100 µM (inactive) | > 100 µM (inactive) | > 100 µM (inactive) | > 100 µM (inactive) | – | > 100 µM (inactive) | > 100 µM (inactive) | > 100 µM (inactive) | – | > 100 µM (inactive) | > 100 µM (inactive) | > 100 µM (inactive) | –
7 | CCOC(=O)/C(C#N)=C/N(CC)/N=C/c1ccccc1 | > 100 µM (inactive) | > 100 µM (inactive) | > 100 µM (inactive) | – | > 100 µM (inactive) | > 100 µM (inactive) | > 100 µM (inactive) | > 100 µM (inactive) | > 100 µM (inactive) | 97.3 µM (inactive) | > 100 µM (inactive) | > 100 µM (inactive) | > 100 µM (inactive) | > 100 µM (inactive) | > 100 µM (inactive) | > 100 µM (inactive) | > 100 µM (inactive) | > 100 µM (inactive) | > 100 µM (inactive)
8 | CCOC(=O)c1sc2nc(SC)nc3c2c1NCN3c1ccc(F)c(F)c1 | 12.6 µM (inactive) | > 52.5 µM (inactive) | > 100 µM (inactive) | 12.1 µM (inactive) | > 100 µM (inactive) | 7.59 µM (inactive) | 29.9 µM (inactive) | 21.1 µM (inactive) | 9.93 µM (inactive) | 6.43 µM (inactive) | 9.84 µM (inactive) | 23.7 µM (inactive) | > 71 µM (inactive) | 34.8 µM (inactive) | – | 10 µM (inactive) | 22.6 µM (inactive) | > 45.8 µM (inactive) | 19.2 µM (inactive)
9 | COc1cc(O)c2c(=O)c(OC)c(-c3ccc4c(c3)OCO4)oc2c1OC | > 50 µM (inactive) | > 50 µM (inactive) | > 50 µM (inactive) | 21.8 µM (inactive) | > 50 µM (inactive) | > 50 µM (inactive) | > 50 µM (inactive) | > 50 µM (inactive) | – | 18.9 µM (inactive) | 21.7 µM (inactive) | > 50 µM (inactive) | > 50 µM (inactive) | 25.9 µM (inactive) | 11.6 µM (inactive) | > 50 µM (inactive) | > 50 µM (inactive) | > 50 µM (inactive) | 21.7 µM (inactive)
10 | COc1cc(S(=O)(=O)Nc2ccc(-c3csc(N4C(=O)C(C)SC4c4cccs4)n3)cc2)ccc1Cl (stereo not given) | > 100 µM (inactive) | 50.5 µM (inactive) | 18.7 µM (inactive) | 0.558 µM (active) | 28.4 µM (inactive) | 60.5 µM (inactive) | 6.28 µM (inactive) | 20.6 µM (inactive) | 24.1 µM (inactive) | 11.1 µM (inactive) | 22.5 µM (inactive) | 23.8 µM (inactive) | 6.49 µM (inactive) | – | – | 34.4 µM (inactive) | – | – | 0.481 µM (active)
11 | CSc1nc2c(c(N3CCOCC3)n1)C(O)n1c(nc3ccccc31)S2 (stereo not given) | 97.1 µM (inactive) | > 100 µM (inactive) | > 100 µM (inactive) | 40.6 µM (inactive) | – | 52.2 µM (inactive) | – | 24.8 µM (inactive) | 4.72 µM (inactive) | 80.4 µM (inactive) | 26.2 µM (inactive) | – | 29.7 µM (inactive) | 17.5 µM (inactive) | 30.5 µM (inactive) | 32.1 µM (inactive) | 47.5 µM (inactive) | > 100 µM (inactive) | 96.2 µM (inactive)
12 | COC(=O)C1OC(O[C@H]2CC[C@]3(C)[C@H]4CC=C5[C@@H]6CC(C)(C)CC[C@]6(C(=O)OC6OCC(O)C(O)C6OC6OC(C)C(OC7OCC(OC8OCC(O)C(O)C8O)C(O)C7O)C(O)C6O)[C@H](O)C[C@@]5(C)[C@]4(C)CC[C@H]3C2(C)C)C(O)C(O)C1O (stereo not given in full) | 2.03 µM (inactive) | 2.87 µM (inactive) | 3.21 µM (inactive) | 5.33 µM (inactive) | – | 4.16 µM (inactive) | 1.52 µM (inactive) | 2.66 µM (inactive) | 5.5 µM (inactive) | 11.4 µM (inactive) | 4.72 µM (inactive) | 2.08 µM (inactive) | 3.02 µM (inactive) | 3.08 µM (inactive) | 3.44 µM (inactive) | 5.14 µM (inactive) | 9.51 µM (inactive) | 3.09 µM (inactive) | 14.9 µM (inactive)
13 | Fc1ccc2c(c1)nc1n2C(c2c(F)cccc2F)SC1 (stereo not given) | 71.8 µM (inactive) | 32.5 µM (inactive) | 20.7 µM (inactive) | 66.7 µM (inactive) | – | 55.1 µM (inactive) | > 100 µM (inactive) | 30.1 µM (inactive) | 78.9 µM (inactive) | 62.2 µM (inactive) | 53.2 µM (inactive) | > 100 µM (inactive) | > 100 µM (inactive) | 45.4 µM (inactive) | 28.2 µM (inactive) | 69.3 µM (inactive) | 46.7 µM (inactive) | 52.7 µM (inactive) | 59.2 µM (inactive)
14 | O=C(NC1CCN(Cc2ccccc2)CC1)c1cccc(I)c1 | 46.6 µM (inactive) | 19.7 µM (inactive) | 34.4 µM (inactive) | 15.8 µM (inactive) | 22.6 µM (inactive) | 17.1 µM (inactive) | 31.6 µM (inactive) | 17.8 µM (inactive) | 12.5 µM (inactive) | 51.8 µM (inactive) | 50.9 µM (inactive) | 18 µM (inactive) | 18.7 µM (inactive) | 35 µM (inactive) | – | 17.1 µM (inactive) | 22.8 µM (inactive) | 16.4 µM (inactive) | 22.2 µM (inactive)
15 | NC(=O)CNC(=O)C1CC(O)CN1C(=O)C1CCCN1C(=O)OCc1ccccc1 (stereo not drawn) (Cbz-Pro-[Hyp]-Gly-NH2; configuration not given here) | > 100 µM (inactive) | – | > 100 µM (inactive) | > 100 µM (inactive) | > 100 µM (inactive) | > 100 µM (inactive) | > 100 µM (inactive) | > 100 µM (inactive) | > 100 µM (inactive) | > 100 µM (inactive) | > 100 µM (inactive) | > 100 µM (inactive) | > 100 µM (inactive) | > 100 µM (inactive) | > 100 µM (inactive) | > 100 µM (inactive) | > 100 µM (inactive) | > 100 µM (inactive) | > 100 µM (inactive)
